Data taken from ChEMBL document CHEMBL6078618, “Exploring quinoxaline derivatives: An overview of a new approach to combat antimicrobial resistance” (Eur J Med Chem, 2024).
Converted amounts (≈) assume the structure as drawn.

Tests used:
Staphylococcus aureus [1] = assay: Antibacterial activity against Staphylococcus aureus ATCC 25923 assessed as reduction in bacterial growth incubated for 24 hrs by serial dilution method; type: functional
Rhizoctonia solani = assay: Antifungal activity against Rhizoctonia solani; type: functional, organism-based
Escherichia coli [2] = assay: Antimicrobial activity against Escherichia coli NCIM 2065 assessed as zone of inhibition incubated for 24 hrs by agar diffusion method; type: functional
Escherichia coli [3] = assay: Antibacterial activity against Escherichia coli E38 assessed as reduction in bacterial growth by measuring minimum bactericidal concentration incubated for 16 to 20 hrs by serial dilution method; type: functional; details: time 16-20 hrs
Bacillus pumilus = assay: Antimicrobial activity against Bacillus pumilus; type: functional
Escherichia coli [4] = assay: Antibacterial activity against Escherichia coli ATCC 25922 assessed as reduction in bacterial growth by broth microdilution method; type: functional
Nakaseomyces glabratus = assay: Antifungal activity against Candida glabrata; type: functional
Candida tropicalis = assay: Antifungal activity against Candida tropicalis; type: functional
Pichia kudriavzevii = assay: Antifungal activity against Candida krusei; type: functional
Candida albicans [5] = assay: Antifungal activity against Candida albicans; type: functional
Pseudomonas aeruginosa = assay: Antibacterial activity against Pseudomonas aeruginosa ATCC 27853 assessed as inhibition of bacterial growth; type: functional
Xanthomonas axonopodis = assay: Antimicrobial activity against Xanthomonas axonopodis; type: functional, organism-based
Micrococcus luteus = assay: Antibacterial activity against Micrococcus luteus assessed as reduction in microbial growth; type: functional
Fusarium oxysporum = assay: Antifungal activity against Fusarium oxysporum; type: functional
Candida albicans [6] = assay: Antifungal activity against Candida albicans assessed as reduction in microbial growth; type: functional
MCF7 = assay: Anticancer activity against human MCF7 cells assessed as reduction in cell growth; type: functional, cell-based
Staphylococcus aureus [7] = assay: Antibacterial activity against Staphylococcus aureus; type: functional

## C/C(=N/Nc1nc2nc3cc(S(=O)(=O)N4CCOCC4)ccc3nc2s1)c1ccc(Br)cc1
Staphylococcus aureus [1]
  MIC: 1.92 µg/mL (≈ 3.51 µM)

## CO/C=C(/C(=O)OC)c1ccccc1Oc1cc(Oc2ccccc2C#N)ncn1 [AZOXYSTROBIN]
Rhizoctonia solani
  EC50: 26.2 µg/mL (≈ 64.9 µM)

## Cc1cc(C)cc(Sc2nc3ccccc3nc2Cl)c1
Escherichia coli [2]
  inhibition zone (IZ): 11 mm
Escherichia coli [3]
  MBC: 2.5 µg/mL (≈ 8.31 µM)

## COc1ccc(Sc2nc3ccccc3nc2Sc2ccc(OC)cc2)cc1
Bacillus pumilus
  MIC: 5 µg/mL (≈ 12.3 µM)
Escherichia coli [4]
  MIC: 2.5 µg/mL (≈ 6.15 µM)

## OC(Cn1cncn1)(Cn1cncn1)c1ccc(F)cc1F [FLUCONAZOLE]
Nakaseomyces glabratus
  MIC90: 2 µg/mL (≈ 6.53 µM)
Candida tropicalis
  MIC90: 4 µg/mL (≈ 13.1 µM)
Pichia kudriavzevii
  MIC90: 16 µg/mL (≈ 52.2 µM)
Candida albicans [5]
  MIC90: 0.5 µg/mL (≈ 1.63 µM)

## O=C(c1cnc(-c2ccc(Cl)cc2)o1)c1nc2ccccc2nc1NCc1ccccc1
Pseudomonas aeruginosa
  MIC: 31.2 µg/mL (≈ 70.9 µM)
Xanthomonas axonopodis
  EC50: 6.72 µM
Micrococcus luteus
  MIC: 62.5 µg/mL

## Nc1ccc(Sc2nc3ccccc3nc2Sc2ccc(N)cc2)cc1
Bacillus pumilus
  MIC: 2.5 µg/mL (≈ 6.64 µM)
Escherichia coli [4]
  MIC: 2.5 µg/mL (≈ 6.64 µM)

## Cc1cc(O)n(C2=NNc3nc4ccc(S(=O)(=O)N5CCOCC5)cc4nc3S2)n1
Fusarium oxysporum
  MIC: 15.6 µg/mL (≈ 34.9 µM)
Candida albicans [6]
  MIC: 3.9 µg/mL
Staphylococcus aureus [1]
  MIC: 1.92 µg/mL (≈ 4.29 µM)

## O=C(O)c1cccc(Sc2nc3ccccc3nc2Sc2cccc(C(=O)O)c2)c1
Escherichia coli [4]
  MIC: 2.5 µg/mL (≈ 5.75 µM)

## Cc1nnc2n1Nc1nc3ccc(S(=O)(=O)N4CCOCC4)cc3nc1S2
Staphylococcus aureus [1]
  MIC: 1.92 µg/mL (≈ 4.74 µM)

## CCc1nc2ccc(-c3nnc(SCC(=O)c4ccc([N+](=O)[O-])cc4)n3CC)cc2nc1CC
Nakaseomyces glabratus
  MIC90: 2 µg/mL (≈ 4.2 µM)
Candida tropicalis
  MIC90: 4 µg/mL (≈ 8.39 µM)
Pichia kudriavzevii
  MIC90: 2 µg/mL (≈ 4.2 µM)
Candida albicans [5]
  MIC90: 4 µg/mL (≈ 8.39 µM)

## CCCNc1nc2ccccc2nc1C(=O)c1cnc(-c2ccccc2)o1
Pseudomonas aeruginosa
  MIC: 31.2 µg/mL (≈ 87.2 µM)
Micrococcus luteus
  MIC: 62.5 µg/mL

## COc1ccc(Sc2nc3ccccc3nc2Cl)cc1
Escherichia coli [2]
  inhibition zone (IZ): 13 mm
Escherichia coli [3]
  MBC: 2.5 µg/mL (≈ 8.26 µM)

## N#Cc1ccc(COC(=O)c2ccc(Oc3cnc4ccccc4n3)cc2)cc1
Rhizoctonia solani
  EC50: 8.54 µg/mL (≈ 22.4 µM)

## O=C(c1cnc(-c2ccc(Cl)cc2)o1)c1nc2ccccc2nc1N1CCOCC1
Pseudomonas aeruginosa
  MIC: 31.2 µg/mL (≈ 74.3 µM)
Xanthomonas axonopodis
  EC50: 44.3 µM
Micrococcus luteus
  MIC: 62.5 µg/mL

## COc1ccc(OC)c(/C=C/c2nc3ccccc3nc2Nc2ccc(C(=O)O)cc2)c1
MCF7
  IC50: 10 µM

## N#Cc1ccc(COC(=O)c2ccc(Oc3cnc4cc(Cl)ccc4n3)cc2)cc1
Rhizoctonia solani
  EC50: 12 µg/mL (≈ 28.9 µM)

## O=S(=O)(c1ccc2nc(Cl)c(Cl)nc2c1)N1CCOCC1
Staphylococcus aureus [1]
  MIC: 1.92 µg/mL (≈ 5.51 µM)

## O=C(OCc1ccc(Cl)cc1Cl)c1ccc(Oc2cnc3cc(Cl)ccc3n2)cc1
Rhizoctonia solani
  EC50: 35.2 µg/mL (≈ 76.5 µM)

## N#Cc1ccc(/C=C/c2nc3ccccc3nc2Nc2ccc(C(=O)O)cc2)cc1
Staphylococcus aureus [7]
  MIC: 13.3 µM (≈ 5.22 µg/mL)

## O=C(O)c1ccc(Nc2nc3ccccc3nc2/C=C/c2ccc(O)cc2)cc1
MCF7
  IC50: 7 µM

## O=[N+]([O-])c1ccc(Sc2nc3ccccc3nc2Sc2ccc([N+](=O)[O-])cc2)cc1
Escherichia coli [4]
  MIC: 2.5 µg/mL (≈ 5.73 µM)

## S=c1[nH]nc(NCNc2n[nH]c(=S)s2)s1
Rhizoctonia solani
  EC50: 295 µg/mL (≈ 1060 µM)

## O=C(/C=C/c1ccccn1)c1ccc(Oc2cnc3ccccc3n2)cc1
Xanthomonas axonopodis
  EC50: 62.3 µM

## CNc1nc2ccccc2nc1C(=O)c1cnc(-c2ccccc2)o1
Pseudomonas aeruginosa
  MIC: 31.2 µg/mL (≈ 94.6 µM)
Micrococcus luteus
  MIC: 62.5 µg/mL

## Nc1ccc(Sc2nc3ccccc3nc2Cl)cc1
Escherichia coli [2]
  inhibition zone (IZ): 15 mm
Escherichia coli [3]
  MBC: 2.5 µg/mL (≈ 8.69 µM)

## CCNc1nc2ccccc2nc1C(=O)c1cnc(-c2ccccc2)o1
Pseudomonas aeruginosa
  MIC: 31.2 µg/mL (≈ 90.7 µM)
Micrococcus luteus
  MIC: 62.5 µg/mL

## NNC1=NNc2nc3ccc(S(=O)(=O)N4CCOCC4)cc3nc2S1
Fusarium oxysporum
  MIC: 15.6 µg/mL (≈ 40.9 µM)
Candida albicans [6]
  MIC: 3.9 µg/mL
Staphylococcus aureus [1]
  MIC: 1.92 µg/mL (≈ 5.03 µM)

## CCCNc1nc2ccccc2nc1C(=O)c1cnc(-c2ccc(Cl)cc2)o1
Pseudomonas aeruginosa
  MIC: 31.2 µg/mL (≈ 79.5 µM)
Xanthomonas axonopodis
  EC50: 42.4 µM
Micrococcus luteus
  MIC: 62.5 µg/mL
